Test results published in patent publication US20160297830A1, “NOVEL COMPOUNDS USEFUL FOR THE TREATMENT OF BACTERIAL INFECTIOUS DISEASES” (GALAPAGOS NV, priority 2013, published 2016).
Converted amounts (≈) assume the structure as drawn. Like-named read-outs stand apart in the source and are kept apart here.

What was measured:
S. aureus Sa1 ATCC 13709 = test: microbe, parasite or virus in culture; assay type: cell-based; conditions: Staphylococcus aureus
[1] = test system: S. aureus Sa26 ATCC 25923; test: Antibacterial activity assay (MIC), S. aureus Sa26; assay type: cell-based; conditions: Staphylococcus aureus
S. aureus Sa4 NCTC 6571 = test: Antibacterial activity assay (MIC), S. aureus Sa4; assay type: cell-based; conditions: Staphylococcus aureus
[2] = test system: S. aureus Sa2 clinical strain NCIMB 41953, MRSA; test: microbe, parasite or virus in culture; assay type: cell-based; conditions: Staphylococcus aureus, read-out: MIC Sa2
[3] = test system: H. influenza Hi3 ATCC 31517; test: organism not typed; assay type: cell-based; conditions: read-out: MIC Hi3
[4] = test system: H. influenza Hi10 clinical strain; test: organism not typed; assay type: cell-based; conditions: read-out: MIC Hi10
[5] = test system: H. influenza Hi47 clinical strain, Ampicillin Resistant; test: organism not typed; assay type: cell-based; conditions: read-out: MIC Hi47
[6] = test system: H. influenza Hi106 ATCC 51907; test: organism not typed; assay type: cell-based; conditions: read-out: MIC Hi106
E. coli Ec1 ATCC 25922 = test: Antibacterial activity assay (MIC), E. coli Ec1; assay type: cell-based; conditions: Escherichia coli
[7] = test system: E. coli Ec50 efflux pump KO; test: microbe, parasite or virus in culture; assay type: cell-based; conditions: Escherichia coli, read-out: MIC Ec50 efflux pump KO
[8] = test system: E. coli Ec113 efflux pump KO; test: microbe, parasite or virus in culture; assay type: cell-based; conditions: Escherichia coli, read-out: MIC Ec113 efflux pump KO
[9] = biological target: DNA Polymerase IIIα (DnaE) from Staphylococcus aureus (Staphylococcus aureus, UniProt Q6GG04); test: biochemical
DNA III Polymerase E = DNA III Polymerase E (Escherichia coli, UniProt P10443); test: In vitro activity against DNA III Polymerase E, E. coli; assay type: biochemical; conditions: DNA polymerase III, E. coli; read-out: IC50 semiquantitative scoring, E. coli
Method: A radioactive filterplate assay was used to assess inhibitory activity of compounds on DNA Polymerase IIIα. Five μL of a dilution series of compound, starting from 100 μM highest concentration, 1/5 dilution, was added to the wells of a 96 well plate. Recombinant enzyme was diluted to 0.47 μg/mL in a buffer containing 20 mM Tris pH7.5, 8 mM DTT, 10 mM MgOAc, 0.05% CHAPS and 10 μL thereof was added to the compound dilutions. The reaction was started with the addition of 10 μL substrate in the same buffer, containing activated calf thymus DNA (Sigma, D4522), dATP, dGTP, dCTP, dTTP (Invitrogen) and [α-33P]-dTTP (Perkin Elmer, NEG605H001) at a concentration of 62.5 μg/mL, 50 nM and 7.5 μCi/mL respectively. The mixture was incubated at 30° C. for 120 minutes and terminated by addition of phosphoric acid. Samples were transferred to filter plates and incorporated radioactivity was measured by the Topcount. Data were converted to percent inhibition with respect to positive and negative controls. IC50 values were calculated using Graph Prism™ software.

[10] = ATCC13709, S. aureus Sa1 ATCC 13709, sensitive strain, Mueller-Hinton Broth, 37° C., read-out: MIC Sa1
[11] = ATCC25923, read-out: MIC Sa26 + 10% SH, S. aureus Sa26 + 10% SH
[12] = ATCC25923, read-out: MIC Sa26 + 50% SH, S. aureus Sa26 + 50% SH
[13] = ATCC25923, S. aureus Sa26 ATCC 25923, sensitive strain, Mueller-Hinton Broth, 37° C., read-out: MIC Sa26
[14] = NCTC6571, S. aureus Sa4 NCTC 6571, sensitive strain, read-out: MIC Sa4
[15] = ATCC25922, E. coli Ec1 ATCC 25922, sensitive strain, read-out: MIC Ec1
[16] = DNA polymerase III, S. aureus, read-out: IC50 semiquantitative scoring, S. aureus
[17] = ATCC25923, read-out: MIC Sa26 + 10% SH
[18] = ATCC25923, read-out: MIC Sa26 + 50% SH

DNA Polymerase IIIα (DnaE) from Staphylococcus aureus, sequence (Q6GG04 1-1022): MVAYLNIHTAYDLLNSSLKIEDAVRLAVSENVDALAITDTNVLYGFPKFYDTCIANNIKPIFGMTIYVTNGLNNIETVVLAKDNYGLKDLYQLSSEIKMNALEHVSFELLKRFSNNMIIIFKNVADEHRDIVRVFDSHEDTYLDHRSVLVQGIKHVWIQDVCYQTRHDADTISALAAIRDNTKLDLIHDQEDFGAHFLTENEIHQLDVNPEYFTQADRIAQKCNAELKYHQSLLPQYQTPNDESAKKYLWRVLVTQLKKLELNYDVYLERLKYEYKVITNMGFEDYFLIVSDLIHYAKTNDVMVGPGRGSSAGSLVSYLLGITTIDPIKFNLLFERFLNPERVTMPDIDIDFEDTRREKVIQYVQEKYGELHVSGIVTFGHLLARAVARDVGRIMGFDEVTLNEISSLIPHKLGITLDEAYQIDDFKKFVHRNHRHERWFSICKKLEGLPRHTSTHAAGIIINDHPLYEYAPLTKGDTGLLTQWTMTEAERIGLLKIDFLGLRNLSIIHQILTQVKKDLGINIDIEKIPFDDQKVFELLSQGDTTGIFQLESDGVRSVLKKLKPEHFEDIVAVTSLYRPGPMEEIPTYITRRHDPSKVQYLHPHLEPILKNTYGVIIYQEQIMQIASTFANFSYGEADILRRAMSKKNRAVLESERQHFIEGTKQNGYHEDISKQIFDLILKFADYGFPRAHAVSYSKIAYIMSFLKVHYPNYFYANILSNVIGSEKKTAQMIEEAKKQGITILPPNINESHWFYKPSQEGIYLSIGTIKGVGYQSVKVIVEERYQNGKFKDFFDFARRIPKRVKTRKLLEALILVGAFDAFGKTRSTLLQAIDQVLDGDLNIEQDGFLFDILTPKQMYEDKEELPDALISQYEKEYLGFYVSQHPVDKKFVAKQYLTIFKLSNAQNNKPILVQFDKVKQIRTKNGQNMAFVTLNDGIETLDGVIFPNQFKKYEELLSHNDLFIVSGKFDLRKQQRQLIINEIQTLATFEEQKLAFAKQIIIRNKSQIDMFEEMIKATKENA
DNA III Polymerase E, sequence (P10443 whole entry): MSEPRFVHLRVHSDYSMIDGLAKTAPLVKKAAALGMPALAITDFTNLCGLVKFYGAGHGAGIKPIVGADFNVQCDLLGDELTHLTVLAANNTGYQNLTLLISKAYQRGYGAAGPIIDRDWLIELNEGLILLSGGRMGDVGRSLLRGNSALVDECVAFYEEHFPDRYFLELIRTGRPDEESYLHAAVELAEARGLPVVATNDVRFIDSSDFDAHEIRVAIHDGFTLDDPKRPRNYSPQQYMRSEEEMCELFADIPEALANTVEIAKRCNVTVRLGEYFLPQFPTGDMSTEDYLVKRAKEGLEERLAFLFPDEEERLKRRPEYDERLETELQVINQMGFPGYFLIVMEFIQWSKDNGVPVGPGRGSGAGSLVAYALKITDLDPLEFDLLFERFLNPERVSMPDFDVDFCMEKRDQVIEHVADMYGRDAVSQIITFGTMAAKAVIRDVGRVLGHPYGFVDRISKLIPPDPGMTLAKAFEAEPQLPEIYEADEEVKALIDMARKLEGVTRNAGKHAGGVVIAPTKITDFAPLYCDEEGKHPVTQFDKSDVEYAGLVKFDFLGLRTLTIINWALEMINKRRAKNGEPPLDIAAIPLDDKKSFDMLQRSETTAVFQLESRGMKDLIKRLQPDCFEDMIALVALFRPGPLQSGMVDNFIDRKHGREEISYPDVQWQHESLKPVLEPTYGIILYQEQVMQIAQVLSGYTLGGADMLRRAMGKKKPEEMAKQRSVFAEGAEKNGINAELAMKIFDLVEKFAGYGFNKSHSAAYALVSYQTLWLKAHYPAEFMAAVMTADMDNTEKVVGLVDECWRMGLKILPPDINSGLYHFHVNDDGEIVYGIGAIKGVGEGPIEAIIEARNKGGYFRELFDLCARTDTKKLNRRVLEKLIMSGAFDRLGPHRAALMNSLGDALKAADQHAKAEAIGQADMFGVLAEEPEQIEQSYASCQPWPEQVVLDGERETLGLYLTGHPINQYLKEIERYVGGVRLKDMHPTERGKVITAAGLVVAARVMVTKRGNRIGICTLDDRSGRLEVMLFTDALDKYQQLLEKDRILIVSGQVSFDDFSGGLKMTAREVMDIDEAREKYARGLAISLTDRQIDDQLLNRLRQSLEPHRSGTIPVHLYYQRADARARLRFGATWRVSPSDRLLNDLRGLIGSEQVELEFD

Structure (SMILES): COC[C@@H]1[C@@H](O)[C@@H]2[C@H]3C=C[C@@H]4[C@@H](COC)C(=O)O[C@H]([C@H](O)COC)[C@H](C)/C=C(\C)[C@@]24O[C@H]3[C@@H]1OC(=O)c1cc(Br)c(Br)o1 [Compound 36, 8-O-4,5-Dibromofurane-2′-carbonylbranimycin]
- MIC (S. aureus Sa1 ATCC 13709; [10]): 64 µg/mL (≈ 87.1 µM)
- MIC [1, 11]: > 64 µg/mL
- MIC [1, 12]: > 64 µg/mL
- MIC [1, 13]: > 64 µg/mL
- MIC (S. aureus Sa4 NCTC 6571; [14]): 32 µg/mL (≈ 43.6 µM)
- MIC [2]: 64 µg/mL (≈ 87.1 µM)
- MIC [3]: > 64 µg/mL
- MIC [4]: > 64 µg/mL
- MIC [5]: > 64 µg/mL
- MIC [6]: > 64 µg/mL
- MIC (E. coli Ec1 ATCC 25922; [15]): > 64 µg/mL
- MIC [7]: > 64 µg/mL
- MIC [8]: 64 µg/mL (≈ 87.1 µM)
- IC50 [9, 16]: 1.36 to 1360 nM

Structure (SMILES): COC/C(=N\OC)[C@H]1OC(=O)[C@H](COC)[C@H]2C=C[C@H]3[C@H]4O[C@]2(/C(C)=C/[C@H]1C)[C@@H]3[C@H](O)[C@@H](COC)[C@H]4OC(=O)c1ccc[nH]1 [Compound 27, 18-Deoxy-18-methoximino-8-O-1H-pyrrole-2′-carbonylbranimycin]
- MIC (S. aureus Sa1 ATCC 13709; ATCC13709, read-out: MIC Sa1): 1 µg/mL (≈ 1.66 µM)
- MIC ([1]; ATCC25923, read-out: MIC Sa26): 1 µg/mL (≈ 1.66 µM)
- MIC [1, 17]: 2 µg/mL
- MIC [1, 18]: 4 µg/mL
- MIC (S. aureus Sa4 NCTC 6571; NCTC6571, read-out: MIC Sa4): 1 µg/mL (≈ 1.66 µM)
- MIC [2]: 1 µg/mL (≈ 1.66 µM)
- MIC [3]: > 64 µg/mL
- MIC [4]: > 64 µg/mL
- MIC [5]: > 64 µg/mL
- MIC [6]: > 64 µg/mL
- MIC (E. coli Ec1 ATCC 25922; ATCC25922, read-out: MIC Ec1): > 64 µg/mL
- MIC [7]: > 64 µg/mL
- MIC [8]: 4 µg/mL (≈ 6.64 µM)
- IC50 [9]: 1.66 to 1660 nM

Structure (SMILES): COC[C@@H](O)[C@H]1OC(=O)[C@H](COC)[C@H]2C=C[C@H]3[C@H]4O[C@]2(/C(C)=C/[C@H]1C)[C@@H]3[C@H](O)[C@@H](C)[C@H]4OC(=O)c1cc(F)c[nH]1 [Compound 23, 8-O-4-Fluoro-1H-pyrrole-2′-carbonylbaleomycin]
- MIC (S. aureus Sa1 ATCC 13709; ATCC13709, read-out: MIC Sa1): 1 µg/mL (≈ 1.77 µM)
- MIC ([1]; ATCC25923, read-out: MIC Sa26): 1 µg/mL (≈ 1.77 µM)
- MIC [1, 17]: 2 µg/mL
- MIC [1, 18]: 4 µg/mL
- MIC (S. aureus Sa4 NCTC 6571; NCTC6571, read-out: MIC Sa4): 1 µg/mL (≈ 1.77 µM)
- MIC [2]: 4 µg/mL (≈ 7.1 µM)
- MIC [3]: > 64 µg/mL
- MIC [4]: 64 µg/mL (≈ 114 µM)
- MIC [5]: 64 µg/mL (≈ 114 µM)
- MIC [6]: 64 µg/mL (≈ 114 µM)
- MIC (E. coli Ec1 ATCC 25922; ATCC25922, read-out: MIC Ec1): > 64 µg/mL
- MIC [8]: 0.12 µg/mL (≈ 0.213 µM)
- IC50 [9]: 1.77 to 1770 nM
- IC50 (DNA III Polymerase E): 1770 to 17700 nM

Structure (SMILES): COC[C@@H]1[C@@H](O)[C@@H]2[C@H]3C=C[C@@H]4[C@@H](COC)C(=O)O[C@H]([C@H](O)COC)[C@H](C)/C=C(\C)[C@@]24O[C@H]3[C@@H]1OC(=O)c1ccc(C)[nH]1 [Compound 6, 8-O-5-Methyl-1H-pyrrole-2′-carbonylbranimycin]
- MIC (S. aureus Sa1 ATCC 13709; ATCC13709, read-out: MIC Sa1): > 64 µg/mL
- MIC ([1]; ATCC25923, read-out: MIC Sa26): > 64 µg/mL
- MIC [1, 17]: > 64 µg/mL
- MIC [1, 18]: > 64 µg/mL
- MIC (S. aureus Sa4 NCTC 6571; NCTC6571, read-out: MIC Sa4): > 64 µg/mL
- MIC [2]: 64 µg/mL (≈ 109 µM)
- MIC [3]: > 64 µg/mL
- MIC [4]: > 64 µg/mL
- MIC [5]: > 64 µg/mL
- MIC [6]: > 64 µg/mL
- MIC (E. coli Ec1 ATCC 25922; ATCC25922, read-out: MIC Ec1): > 64 µg/mL
- MIC [8]: 8 µg/mL (≈ 13.6 µM)
- IC50 [9]: 1.7 to 1700 nM
- IC50 (DNA III Polymerase E): > 17000 nM

Structure (SMILES): COC[C@@H]1[C@@H](O)[C@@H]2[C@H]3C=C[C@@H]4[C@@H](COC)C(=O)O[C@H]([C@H](O)COC)[C@H](C)/C=C(\C)[C@@]24O[C@H]3[C@@H]1OC(=O)c1cc(Br)c[nH]1 [Compound 32, 8-O-4-Bromo-1H-pyrrole-2′-carbonylbranimycin]
- MIC (S. aureus Sa1 ATCC 13709; [10]): 4 µg/mL (≈ 6.11 µM)
- MIC [1, 11]: 16 µg/mL
- MIC [1, 12]: 64 µg/mL
- MIC [1, 13]: 16 µg/mL (≈ 24.4 µM)
- MIC (S. aureus Sa4 NCTC 6571; [14]): 8 µg/mL (≈ 12.2 µM)
- MIC [2]: 4 µg/mL (≈ 6.11 µM)
- MIC [3]: > 64 µg/mL
- MIC [4]: > 64 µg/mL
- MIC [5]: > 64 µg/mL
- MIC [6]: > 64 µg/mL
- MIC (E. coli Ec1 ATCC 25922; [15]): > 64 µg/mL
- MIC [7]: > 64 µg/mL
- MIC [8]: 64 µg/mL (≈ 97.8 µM)
- IC50 [9]: 1.53 to 1530 nM

Structure (SMILES): COC[C@@H]1[C@@H](O)[C@@H]2[C@H]3C=C[C@@H]4[C@@H](COC)C(=O)O[C@H]([C@H](O)COC)[C@H](C)/C=C(\C)[C@@]24O[C@H]3[C@@H]1OC(=O)c1cc(Br)c(F)[nH]1 [Compound 37, 8-O-4-Bromo-5-Fluoro-1H-pyrrole-2′-carbonylbranimycin]
- MIC (S. aureus Sa1 ATCC 13709; [10]): > 64 µg/mL
- MIC [1, 11]: > 64 µg/mL
- MIC [1, 12]: > 64 µg/mL
- MIC [1, 13]: 64 µg/mL (≈ 95.2 µM)
- MIC (S. aureus Sa4 NCTC 6571; [14]): 64 µg/mL (≈ 95.2 µM)
- MIC [2]: 64 µg/mL (≈ 95.2 µM)
- MIC [3]: > 64 µg/mL
- MIC [4]: > 64 µg/mL
- MIC [5]: > 64 µg/mL
- MIC [6]: > 64 µg/mL
- MIC (E. coli Ec1 ATCC 25922; [15]): > 64 µg/mL
- MIC [7]: > 64 µg/mL
- MIC [8]: 16 µg/mL (≈ 23.8 µM)
- IC50 [9, 16]: 1.49 to 1490 nM
